Measurements from publication PMC4753485, “Selective potentiation of 2-APB-induced activation of TRPV1–3 channels by acid” (Scientific Reports, 2016).
Values joined by “and” are separate entries in the source; they are usually repeats but may differ in a detail not shown here. Identical values can stand only once. Like-named read-outs stand apart in the source and are kept apart here.

Key:
[1] = 1H-NMR and mass spectrometry of compounds in solution; conditions: 1H-NMR in PBS and mass spectrometry
Description: The solution NMR samples were prepared at the final concentration of 1 mM for the test compound in PBS at three different pH values (5.5, 7.4 and 8.5). […] One-dimensional (1D) ^1H NMR spectra were collected with 2-s delays using a standard Varian 1D watergate pulse sequence. Two-dimensional (2D) ^1H NMR TOCSY (mixing time 100 ms) and NOESY (mixing time 500 ms) spectra were collected using standard Varian TOCSY and NOESY pulse sequences. All spectra were processed using NMRPipe[45] with 1D ^1H spectra analyzed using ACD/NMR Processor (www.acdlabs.com) while 2D ^1H spectra analyzed using SPARKY[46]. In TOCSY, cross-peaks were potentially generated between all resonances within a spin system, while in NOESY, the integrated intensity of a given cross-peak was interpreted in terms of the distance between the two hydrogen atoms that gave rise to the peak.
The molecular mass was then measured by using positive and negative ion electrospray ionization mass spectrometry (ESI-MS, Thermo Fisher Scientific Inc., Waltham, MA).

mouse TRPV3 = molecular target: T1, mouse TRPV3 (Mus musculus, UniProt Q8K424); assay: Whole-cell recordings of TRPV3 currents in HEK293 cells; assay type: cell-based; conditions: for EC50: EC50 of 2-APB-evoked TRPV3 whole-cell current, Vh −60 mV; for EC50 / Hill coefficient nH of 2-APB concentration-response: after full sensitization
T1 construct: Full-length cDNA for murine TRPV3 was isolated and subcloned into pIRES2-EGFP; expressed in transfected cells; host or cells: HEK293 (transient)
T1 sequence (Q8K424 1-791): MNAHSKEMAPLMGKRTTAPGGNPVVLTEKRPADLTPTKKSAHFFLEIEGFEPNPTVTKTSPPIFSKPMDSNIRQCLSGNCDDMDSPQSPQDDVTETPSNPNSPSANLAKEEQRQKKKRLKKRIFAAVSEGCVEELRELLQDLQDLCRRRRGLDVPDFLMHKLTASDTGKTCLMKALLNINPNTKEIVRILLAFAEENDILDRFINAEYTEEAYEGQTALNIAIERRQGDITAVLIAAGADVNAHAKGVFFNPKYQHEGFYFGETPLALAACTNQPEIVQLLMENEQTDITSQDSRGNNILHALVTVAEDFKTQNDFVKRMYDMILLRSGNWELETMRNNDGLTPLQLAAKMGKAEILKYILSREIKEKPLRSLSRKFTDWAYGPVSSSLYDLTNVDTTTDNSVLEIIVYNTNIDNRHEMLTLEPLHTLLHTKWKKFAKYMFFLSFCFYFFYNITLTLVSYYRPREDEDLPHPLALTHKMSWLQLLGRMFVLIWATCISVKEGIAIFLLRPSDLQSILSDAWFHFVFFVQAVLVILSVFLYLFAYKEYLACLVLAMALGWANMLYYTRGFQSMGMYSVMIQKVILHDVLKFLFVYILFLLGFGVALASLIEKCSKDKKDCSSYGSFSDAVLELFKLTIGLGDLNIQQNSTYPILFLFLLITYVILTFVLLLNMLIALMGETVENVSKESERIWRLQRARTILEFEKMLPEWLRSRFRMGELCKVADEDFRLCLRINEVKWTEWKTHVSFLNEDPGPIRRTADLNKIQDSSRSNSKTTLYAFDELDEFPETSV
Description: The resulting mutations were verified by DNA sequencing.
Whole-cell recordings were performed the following day. […] Camphor was purchased from Acros (New Jersey, USA).

TRPV3 [2] = molecular target: T2, TRPV3 (Mus musculus, UniProt Q8K424); assay: cell-based
Excerpt: (§1) Full-length cDNA for murine TRPV3 was isolated and subcloned into pIRES2-EGFP, as previously described. The wild-type rat TRPV1, TRPV2 and TRPM8 cDNAs were generously provided by Dr. Feng Qin (State University of New York at Buffalo, Buffalo). All mutations were made using either QuikChange® XL site-directed mutagenesis kit (Agilent Technologies) or the overlap-extension polymerase chain reaction (PCR) method as previously described. The resulting mutations were verified by DNA sequencing. HEK293 cells were grown in DMEM containing 4.5 mg/ml glucose, 10% heat-inactivated fetal bovine serum, 50 units/ml penicillin, and 50 μg/ml streptomycin. For electrophysiological experiments, cells were seeded in 35 mm culture dishes and transfected with the desired DNA constructs using Lipofectamine 2000 (Invitrogen) following the protocol provided by the manufacturer. Stable TRPV3 expressing cells were selected in the G418-containing medium. For intracellular Ca^2+ measurements, cells were transfected with the desired DNA constructs in the wells of 96-well plates without pre-seeding using Lipofectamine 2000 (Invitrogen) as described.

TRPV3 [3] = molecular target: T2, TRPV3; conditions: 32 °C
Excerpt: as §1

[4] = no reference given; cited from earlier work
TRPM8 = TRPM8 (Rattus norvegicus, UniProt Q8R455); assay: cell-based; conditions: for IC50: IC50 for inhibition of menthol-evoked TRPM8 current, 100 μM menthol
TRPM8, sequence (Q8R455 whole entry): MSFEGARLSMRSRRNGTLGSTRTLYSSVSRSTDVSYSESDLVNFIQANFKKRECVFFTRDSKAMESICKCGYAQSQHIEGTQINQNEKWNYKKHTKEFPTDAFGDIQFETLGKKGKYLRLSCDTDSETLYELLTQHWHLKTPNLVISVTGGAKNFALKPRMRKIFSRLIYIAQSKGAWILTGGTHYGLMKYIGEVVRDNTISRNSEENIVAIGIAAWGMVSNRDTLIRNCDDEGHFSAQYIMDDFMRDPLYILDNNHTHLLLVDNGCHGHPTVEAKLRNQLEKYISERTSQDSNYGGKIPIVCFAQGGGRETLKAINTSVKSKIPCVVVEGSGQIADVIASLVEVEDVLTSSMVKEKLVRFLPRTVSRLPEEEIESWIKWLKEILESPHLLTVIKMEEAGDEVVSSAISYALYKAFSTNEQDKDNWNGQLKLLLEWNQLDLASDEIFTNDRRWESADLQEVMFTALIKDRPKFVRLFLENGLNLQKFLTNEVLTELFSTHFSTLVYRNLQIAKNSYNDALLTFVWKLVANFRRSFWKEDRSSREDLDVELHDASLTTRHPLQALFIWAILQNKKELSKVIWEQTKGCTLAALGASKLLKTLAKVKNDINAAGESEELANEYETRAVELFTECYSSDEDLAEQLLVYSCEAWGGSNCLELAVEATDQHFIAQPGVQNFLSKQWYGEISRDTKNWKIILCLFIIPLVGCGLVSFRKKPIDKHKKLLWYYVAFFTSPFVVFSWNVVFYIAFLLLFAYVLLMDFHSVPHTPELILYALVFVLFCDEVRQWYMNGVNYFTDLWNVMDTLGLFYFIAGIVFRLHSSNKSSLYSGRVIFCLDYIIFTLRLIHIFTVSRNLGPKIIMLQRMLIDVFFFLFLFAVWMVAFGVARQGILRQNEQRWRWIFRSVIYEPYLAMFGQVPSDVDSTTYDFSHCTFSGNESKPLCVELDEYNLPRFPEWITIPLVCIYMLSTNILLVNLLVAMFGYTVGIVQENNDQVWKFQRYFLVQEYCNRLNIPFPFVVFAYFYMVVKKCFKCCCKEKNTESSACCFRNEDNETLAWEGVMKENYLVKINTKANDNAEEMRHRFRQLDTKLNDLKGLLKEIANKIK
Excerpt: as §1
(§2) Transfected HEK293 cells were reseeded on 12 mm round glass coverslips (Warner Instruments) one day after transfection. Whole-cell recordings were performed the following day. Recording pipettes were pulled from borosilicate glass capillaries (Sutter or World Precision Instruments) to 2–4 MΩ when filled with internal solution containing (in mM) 140 CsCl, 2.0 MgCl2, 5 EGTA, 10 HEPES, pH 7.4. Bathing solution contained (in mM) 140 NaCl, 5 KCl, 5 EGTA, 1 MgCl2, 10 glucose and 10 HEPES, pH 7.4. Isolated cells were voltage clamped in the whole-cell mode using an EPC10 amplifier (HEKA Instruments Inc). Voltage commands were made from the Patchmaster program, and the currents were recorded at 5 kHz. […] Whole-cell recordings were typically sampled at 5 kHz and filtered at 1 kHz. The compensation of pipette series resistance and capacitance were taken by using the built-in circuitry of the amplifier (>80%) to reduce voltage errors. Exchange of external solutions was performed using a gravity-driven local perfusion system (Automate Scientific). Channel activators were diluted into the recording solution at the desired final concentrations and applied to the cell through perfusion. As determined by the conductance tests, the solution around a patch under study was fully controlled by the application of a solution with a flow rate of 100 μl/min or greater. […] The acidic solutions contained (in mM): 140 NaCl, 5 KCl, 5 EGTA, 1 MgCl2, 10 glucose, and 10 MES, with pH adjusted to desired values by NaOH. For inside-out recordings, both the pipette solution and bath solution contained (in mM) 140 NaCl, 5 KCl, 5 EGTA, 1 MgCl2, 10 HEPES, pH 7.4. Excised patches were held constantly at desired potentials while compounds were repetitively applied and washed from the bath. For recordings from HEK293 cells under acidic pH conditions, the solution also contained 50 μM amiloride as an inhibitor of the native ASIC channels. Camphor was purchased from Acros (New Jersey, USA). Diphenyl borate (DPB) was synthesized by Beijing Realchem Technology Company (Beijing, China). Other chemicals were purchased from Sigma (Sigma, St. Louis, MO). Water-insoluble reagents were dissolved in either 100% ethanol or DMSO to make stock solutions and were diluted in the bathing solution at appropriate concentrations before experiments. […] All experiments except those for heat activation were performed at room temperature (22–24 °C).

TRPV2 = TRPV2 (Rattus norvegicus, UniProt Q9WUD2); assay: cell-based; conditions: for EC50: EC50 of 2-APB-evoked TRPV2 whole-cell current
TRPV2, sequence (Q9WUD2 whole entry): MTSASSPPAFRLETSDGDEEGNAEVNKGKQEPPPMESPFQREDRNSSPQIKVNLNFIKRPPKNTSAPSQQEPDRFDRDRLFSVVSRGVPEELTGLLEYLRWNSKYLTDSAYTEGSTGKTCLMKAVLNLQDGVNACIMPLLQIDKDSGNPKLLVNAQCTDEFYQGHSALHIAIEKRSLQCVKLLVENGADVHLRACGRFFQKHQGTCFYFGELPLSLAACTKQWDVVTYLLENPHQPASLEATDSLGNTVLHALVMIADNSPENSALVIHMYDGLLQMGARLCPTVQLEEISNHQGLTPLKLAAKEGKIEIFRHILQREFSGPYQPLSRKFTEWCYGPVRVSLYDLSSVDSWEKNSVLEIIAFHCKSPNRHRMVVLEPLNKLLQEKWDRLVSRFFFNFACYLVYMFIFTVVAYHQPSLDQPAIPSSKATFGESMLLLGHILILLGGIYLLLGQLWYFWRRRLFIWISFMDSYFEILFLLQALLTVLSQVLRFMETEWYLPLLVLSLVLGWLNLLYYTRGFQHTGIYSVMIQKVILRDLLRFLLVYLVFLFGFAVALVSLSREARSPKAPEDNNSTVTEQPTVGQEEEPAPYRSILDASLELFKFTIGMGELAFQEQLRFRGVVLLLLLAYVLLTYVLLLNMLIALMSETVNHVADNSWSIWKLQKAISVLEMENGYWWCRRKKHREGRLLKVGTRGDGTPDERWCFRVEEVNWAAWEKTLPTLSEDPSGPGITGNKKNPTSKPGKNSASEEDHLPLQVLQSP
Excerpt: as §1, §2

TRPV1(E600Q/T633A) = molecular target: T3, TRPV1(E600Q/T633A) (Rattus norvegicus, UniProt O35433, E600Q/T633A); assay: Whole-cell recordings of TRPV1(E600Q/T633A) in HEK293 cells; assay type: cell-based; conditions: −60 mV
T3 construct: expressed in transfected cells; host or cells: HEK293
T3 sequence (O35433 whole entry E600Q/T633A): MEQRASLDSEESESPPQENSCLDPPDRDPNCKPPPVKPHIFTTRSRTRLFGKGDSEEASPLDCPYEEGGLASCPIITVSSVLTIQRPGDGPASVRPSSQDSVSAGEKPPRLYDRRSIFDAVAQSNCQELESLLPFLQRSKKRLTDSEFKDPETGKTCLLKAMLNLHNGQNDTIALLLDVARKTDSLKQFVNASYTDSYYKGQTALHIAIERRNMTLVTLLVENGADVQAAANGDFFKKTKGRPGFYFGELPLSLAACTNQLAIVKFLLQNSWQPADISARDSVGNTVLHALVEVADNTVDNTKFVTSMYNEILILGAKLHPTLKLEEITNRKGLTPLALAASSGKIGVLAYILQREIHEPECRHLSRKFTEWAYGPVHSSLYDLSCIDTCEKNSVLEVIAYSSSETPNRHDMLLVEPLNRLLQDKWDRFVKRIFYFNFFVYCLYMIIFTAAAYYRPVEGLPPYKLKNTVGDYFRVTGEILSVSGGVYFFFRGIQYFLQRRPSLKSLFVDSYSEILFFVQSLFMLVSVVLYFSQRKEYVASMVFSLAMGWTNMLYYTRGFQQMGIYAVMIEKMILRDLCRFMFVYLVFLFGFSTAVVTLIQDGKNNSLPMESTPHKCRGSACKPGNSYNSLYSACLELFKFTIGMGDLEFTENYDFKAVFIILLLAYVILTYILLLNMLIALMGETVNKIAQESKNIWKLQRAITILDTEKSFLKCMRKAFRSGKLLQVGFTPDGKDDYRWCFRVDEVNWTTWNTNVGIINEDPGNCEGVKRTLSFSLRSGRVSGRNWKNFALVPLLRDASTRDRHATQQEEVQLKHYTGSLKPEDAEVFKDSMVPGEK
Excerpt: as §1, with “For intracellular Ca^2+ measurements, cells were transfected with the desired DNA constructs in the wells of 96-well plates without pre-seeding using Lipofectamine 2000 (Invitrogen) as described.” left out
(§3) Transfected HEK293 cells were reseeded on 12 mm round glass coverslips (Warner Instruments) one day after transfection. […] Voltage commands were made from the Patchmaster program, and the currents were recorded at 5 kHz. […] As determined by the conductance tests, the solution around a patch under study was fully controlled by the application of a solution with a flow rate of 100 μl/min or greater. […]

[5] = test system: TRPV3 linker 2–3 mutants (L508R, D512N, S518V, A520S); conditions: 100 μM 2-APB; whole-cell and inside-out; after sensitization with 500 μM 2-APB
Excerpt: as §1, with “For intracellular Ca^2+ measurements, cells were transfected with the desired DNA constructs in the wells of 96-well plates without pre-seeding using Lipofectamine 2000 (Invitrogen) as described.” left out
as §3

TRPV1 = molecular target: T4, TRPV1 (Rattus norvegicus, UniProt O35433); assay: Inside-out patch recordings from TRPV1-expressing HEK293 cells; assay type: cell-based; conditions: +60 mV
T4 construct: expressed in transfected cells; host or cells: HEK293
T4 sequence (O35433 whole entry): as the sequence (O35433 whole entry E600Q/T633A) above, with Q600E, A633T counted along it
Excerpt: as §1, with “For intracellular Ca^2+ measurements, cells were transfected with the desired DNA constructs in the wells of 96-well plates without pre-seeding using Lipofectamine 2000 (Invitrogen) as described.” left out
as §3

c1ccc(B(OB(c2ccccc2)c2ccccc2)c2ccccc2)cc1 [DPBA, diphenylboronic anhydride]
Stability in solution [1]: easily hydrolyzed to DPB | Increase of evoked current by acid (pH 5.5) (mouse TRPV3; 5 μM DPBA, after sensitization with 30 μM DPBA): ~ 7 fold

CC12CCC(CC1=O)C2(C)C (stereo not drawn) [camphor]
Effect of acid (pH 5.5) on evoked TRPV3 current (mouse TRPV3; 3 mM camphor, after sensitization with 100 μM 2-APB): slowed down the current development

NCCOB(c1ccccc1)c1ccccc1 [2-APB, 2-aminoethoxydiphenyl borate]
EC50 (TRPV3 [2]): 8.8 ± 1.5 µM | Drop of cytosolic pH (TRPV3 [2]; 300 μM 2-APB): ~ 0.35 pH unit | Effect of reducing extracellular pH to 5.5 on Ca2+ response (TRPV3 [3]; 166 μM 2-APB): not further increased | Effect of reducing extracellular pH to 5.5 on Fluo-4 fluorescence intensity (TRPV3 [3]; low to moderate 2-APB concentrations (6–55 μM)): markedly enhanced | pKa of the amino group [4]: 9.6 | inhibition at 10 µM (TRPM8; HEK293, pH 5.5, read-out: Inhibition of menthol-evoked TRPM8 current): 84 ± 2% | inhibition at 10 µM (TRPM8; HEK293, pH 6, read-out: Inhibition of menthol-evoked TRPM8 current): 69 ± 3% | inhibition at 10 µM (TRPM8; HEK293, pH 7.4, read-out: Inhibition of menthol-evoked TRPM8 current): 24 ± 2% | IC50 (TRPM8; pH 5.5): 3.1 µM and 3.07 µM | IC50 (TRPM8; pH 7.4): 20.5 µM | Hill coefficient nH of inhibition curve (TRPM8; pH 5.5): 1.5 ± 0.1 and 1.49 ± 0.08 | Hill coefficient nH of inhibition curve (TRPM8; pH 7.4): 1.4 ± 0.3 and 1.41 ± 0.28 | EC50 (TRPV2; pH 5.5): 112 ± 1.2 µM | EC50 (TRPV2; pH 7.4): 522 ± 10.2 µM | Hill coefficient nH of 2-APB concentration-response (TRPV2; pH 5.5): 5.2 ± 0.3 and 5.26 ± 0.35 | Hill coefficient nH of 2-APB concentration-response (TRPV2; pH 7.4): 4.3 ± 0.3 and 4.34 ± 0.35 | Stability in solution [1]: easily hydrolyzed to DPB | Effect of lowering extracellular pH to 5.5 on response (TRPV1(E600Q/T633A); 10 μM 2-APB): strongly enhanced | Half-maximal pH of 2-APB-activated TRPV3 currents (mouse TRPV3; 10 μM 2-APB, pH 8.5 to 4.5, after sensitization with 100 μM 2-APB): 6.70 ± 0.02 | EC50 (mouse TRPV3; pH 5.5): 3.3 µM and 3.34 µM | EC50 (mouse TRPV3; pH 7.4): 36.2 ± 2.1 µM | Hill coefficient nH of 2-APB concentration-response (mouse TRPV3; pH 5.5): 2.0 ± 0.3 and 1.98 ± 0.34 | Hill coefficient nH of 2-APB concentration-response (mouse TRPV3; pH 7.4): 1.8 ± 0.2 and 1.76 ± 0.17 | Effect of low pH (5.5) on response to 2-APB in mutant channels [5]: greatly increased | Increase of peak current at pH 5.5 over pH 7.4, cytoplasmic side (TRPV1; 100 μM 2-APB): more than 2 fold

CC1CCC(C(C)C)C(O)C1 (stereo not drawn) [menthol]
inhibition at 1000 µM (mouse TRPV3; HEK293, pH 5.5, read-out: Inhibition of evoked TRPV3 current by acid (pH 5.5)): ~48%

OB(c1ccccc1)c1ccccc1 [DPB]
Increase of evoked current by acidic pH (5.5 versus 7.4) (mouse TRPV3; 10 μM DPB, after sensitization with 100 μM 2-APB): about 5 fold

OC(c1ccccc1)c1ccccc1 [DPM, diphenyl methanol]
TRPV3 current elicited (mouse TRPV3; pH 7.4 (30 or 500 μM) or pH 5.5 (30 μM only), after sensitization with 100 μM 2-APB): no detectable current

COc1cc(CNC(=O)CCCC/C=C/C(C)C)ccc1O [capsaicin]
Decrease of elicited current by lowering extracellular pH to 5.5 (TRPV1(E600Q/T633A); 0.01 μM capsaicin): nearly one-half | Effect of intracellular acid (pH 5.5) on evoked current (TRPV1; 0.1 μM capsaicin): did not enhance
